The values below come from patent US8629285B2, “Imidazole compounds that modulate HSP90 activity” (Synta Pharmaceuticals Corp., priority 2005, dated 2014).

In this experiment the test system is Her2. The experiment can be described thus: Degradation of Her2 in BT-474 cells (Method 1, SDS-PAGE/immunoblot). The class given is cell-based, Human. The settings on record: 0.5 μM, overnight. Here is the method:
Human high-Her2 breast carcinoma BT474 (HTB-20), SK-BR-3 (HTB-30) and MCF-7 breast carcinoma (HTB-22) from American Type Culture Collection, VA, USA are grown in Dulbecco's modified Eagle's medium with 4 mM L-glutamine and antibiotics (100 IU/ml penicillin and 100 ug/ml streptomycine; GibcoBRL). To obtain exponential cell growth, cells are trypsinized, counted and seeded at a cell density of 0.5×10^6 cells/ml regularly, every 3 days. All experiments are performed on day 1 after cell passage.
BT-474 cells are treated with 0.5 μM, 2 μM, or 5 μM of 17AAG (a positive control) or 0.5 μM, 2 μM, or 5 μM of a compound of the invention overnight in DMEM medium. After treatment, each cytoplasmic sample is prepared from 1×10^6 cells by incubation of cell lysis buffer (#9803, cell Signaling Technology) on ice for 10 minutes. The resulting supernatant used as the cytosol fractions is dissolved with sample buffer for SDS-PAGE and run on a SDS-PAGE gel, blotted onto a nitrocellulose membrane by using semi-dry transfer. Non-specific binding to nitrocellulose is blocked with 5% skim milk in TBS with 0.5% Tween at room temperature for 1 hour, then probed with anti-Her2/ErB2 mAb (rabbit IgG, #2242, Cell Signaling) and anti-Tubulin (T9026, Sigma) as housekeeping control protein. […]
In general terms: A western blot detects proteins with antibodies after separation by electrophoresis.

Structures are written as SMILES.

On to `C=CCNC1=C2C[C@@H](C)C[C@H](OC)[C@H](O)[C@@H](C)/C=C(\C)[C@H](OC(N)=O)[C@@H](OC)/C=C\C=C(/C)C(=O)NC(=CC1=O)C2=O` [17AAG], for which the “degradation of Her2” value is listed as “partial degradation”.
